Earlier results as cited in patent publication US20100124560A1, “MULTI PORTION INTRA-ORAL DOSAGE FORM AND USE THEREOF” (McNEIL AB, priority 2008, published 2010).
Like-named read-outs stand apart in the source and are kept apart here.

Experiments:
[1] = pKa value lying in interval 8-9.6

SMILES	Solubility in water (in water)	also measured
N[C@@H](CO)C(=O)O [Serine]	–	pKa value (in interval 8-9.6) [1]: 9.05
CC(C)[C@H](N)C(=O)O [Valine]	88.5 g/kg	–
CSCC[C@H](N)C(=O)O [Methionine]	56 g/kg	–
NC(=O)CC[C@H](N)C(=O)O [Glutamine]	42 g/kg	–
N[C@@H](Cc1ccccc1)C(=O)O [Phenylalanine]	27.9 g/kg	–
NCCCC[C@H](N)C(=O)O [Lysine]	–	Solubility in water, g/kg: Very soluble^a)b)
CC(C)C[C@H](N)C(=O)O [Leucine]	22.0 g/kg	–
N[C@@H](Cc1c[nH]cn1)C(=O)O [Histidine]	43.5 g/kg	–
NC(=O)C[C@H](N)C(=O)O [Aspargine]	–	pKa value (in interval 8-9.6) [1]: 8.73
N[C@@H](CS(=O)(=O)O)C(=O)O [Cysteic acid]	–	Solubility in water, g/kg (in water): Very soluble
CC[C@H](C)[C@H](N)C(=O)O [Isoleucine]	34.2 g/kg	–
